Consider 22 compounds from patent publication US20260055102A1 (Redx Pharma Limited, priority 2022, published 2026).

In experiment [1] the target is Recombinant human DDR2 (aa427-855 containing a GST tag) (Homo sapiens (Human), UniProt Q16832). As to the kind of experiment: LanthaScreen Eu Kinase Binding Assay DDR2. The settings on record: Kinase Tracer 178 10 nM, at least two independent replicates; for IC50: read-out: DDR2 pIC50 (converted). Here is the method: (§1) DDR1 and DDR2 Biochemical Assay Method The capacity of compounds to bind to DDR1 and DDR2 was quantified using a LanthaScreen Eu Kinase Binding Assay. Recombinant human DDR1 (2.5 nM; aa440-876 containing a GST tag) and DDR2 (1.75 nM; aa427-855 containing a GST tag) were diluted in assay buffer (50 mM HEPES pH7.3, 10 mM MgCl2, 1 mM EGTA and 0.01% Tween) with various concentrations of compound in a 384-well plate and a volume of 5 uL. After a 30-minute incubation at room temperature, 2.5 uL of Eu-anti GST antibody (diluted to 1 nM in assay buffer) plus Kinase Tracer 178 (diluted in assay buffer to 5 nM for DDR1 and 10 nM for DDR2) were added to the plate. Following 60-minute incubation at room temperature, time-resolved fluorescence was measured on a BMG Labtech PHERAstar plate reader. DMSO (1%) and reference compound (1 μM) were used to generate the Max and Min assay signals, respectively. Data was analysed using a four-parameter logistic model to calculate IC50 values, with at least two independent replicates were performed for each compound.
Recombinant human DDR2 (aa427-855 containing a GST tag), sequence (Q16832 427-855): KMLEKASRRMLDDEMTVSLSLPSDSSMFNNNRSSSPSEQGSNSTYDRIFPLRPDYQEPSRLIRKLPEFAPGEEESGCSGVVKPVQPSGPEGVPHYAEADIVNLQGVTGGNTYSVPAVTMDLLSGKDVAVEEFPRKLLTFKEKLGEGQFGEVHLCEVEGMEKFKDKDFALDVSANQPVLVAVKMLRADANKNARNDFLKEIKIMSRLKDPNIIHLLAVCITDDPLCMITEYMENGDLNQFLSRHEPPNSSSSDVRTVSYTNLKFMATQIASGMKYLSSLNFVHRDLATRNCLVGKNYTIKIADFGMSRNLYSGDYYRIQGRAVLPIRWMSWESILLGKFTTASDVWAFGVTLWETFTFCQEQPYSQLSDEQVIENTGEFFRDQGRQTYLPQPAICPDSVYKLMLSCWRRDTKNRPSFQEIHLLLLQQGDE
(In general: TR-FRET usually uses a lanthanide donor and a delayed reading to cut background.)

The target of experiment [2] is Recombinant human DDR1 (aa440-876 containing a GST tag) (Homo sapiens (Human), UniProt Q08345). As to the kind of experiment: LanthaScreen Eu Kinase Binding Assay DDR1. The settings on record: Kinase Tracer 178 5 nM, at least two independent replicates; for IC50: read-out: DDR1 pIC50 (converted). The method, then: as §1
Recombinant human DDR1 (aa440-876 containing a GST tag), sequence (Q08345 other isoform, or with tags, fused parts or gaps): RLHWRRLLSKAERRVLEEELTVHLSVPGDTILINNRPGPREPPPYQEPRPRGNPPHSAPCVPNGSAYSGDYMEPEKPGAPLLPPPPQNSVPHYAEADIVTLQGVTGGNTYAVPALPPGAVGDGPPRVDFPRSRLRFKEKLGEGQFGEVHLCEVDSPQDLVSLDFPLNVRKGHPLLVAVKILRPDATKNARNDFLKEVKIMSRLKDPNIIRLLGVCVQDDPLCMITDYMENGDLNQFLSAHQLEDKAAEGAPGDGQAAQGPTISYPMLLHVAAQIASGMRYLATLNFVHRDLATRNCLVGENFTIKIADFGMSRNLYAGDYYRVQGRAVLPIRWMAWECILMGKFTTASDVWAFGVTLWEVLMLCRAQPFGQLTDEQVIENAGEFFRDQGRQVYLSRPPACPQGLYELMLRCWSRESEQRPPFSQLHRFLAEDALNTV

Consider `Cc1cccc2c1n(-c1ccc(-c3cncc4c3cnn4C)cc1)c(=O)n2CC(=O)N1CCC[C@H]1CF` [Example 45, 1-[2-[(2S)-2-(fluoromethyl)pyrrolidin-1-yl]-2-oxo-ethyl]-4-methyl-3-[4-(1-methylpyrazolo[3,4-c]pyridin-4-yl)phenyl]benzimidazol-2-one], for which the IC50 in experiment [1] is 10 to 100 nM. Also, the “DDR1 pIC50” value in experiment [2] is given as “A (pIC50>8)”.

As for `Cn1ncc2c(-c3ccc(-n4c(=O)n(CC(=O)NCCC(F)(F)F)c5ccccc54)cc3)cncc21` [Example 46, 2-[3-[4-(1-methylpyrazolo[3,4-c]pyridin-4-yl)phenyl]-2-oxo-benzimidazol-1-yl]-N-(3,3,3-trifluoropropyl)acetamide], the “DDR2 pIC50” value in experiment [1] is listed as “D (pIC50≤6)”. For the same compound, in experiment [2], the IC50 was 10 to 100 nM.

As to `Cc1cccc2c1n(-c1cnc(-c3cncc4c3cnn4C)cn1)c(=O)n2CC(=O)NCC(F)(F)F` [Example 47, 2-[4-methyl-3-[5-(1-methylpyrazolo[3,4-c]pyridin-4-yl)pyrazin-2-yl]-2-oxo-benzimidazol-1-yl]-N-(2,2,2-trifluoroethyl)acetamide], the IC50 in experiment [1] was 100 to 1000 nM. Moreover, the “DDR1 pIC50” value in experiment [2] is “A (pIC50>8)”.

Turning to `Cc1cccc2c1n(-c1cnc(-c3cncc4c3cnn4C)cn1)c(=O)n2CC(=O)N[C@H](C)C(F)(F)F` [Example 48, 2-[4-methyl-3-[5-(1-methylpyrazolo[3,4-c]pyridin-4-yl)pyrazin-2-yl]-2-oxo-benzimidazol-1-yl]-N-[(1R)-2,2,2-trifluoro-1-methyl-ethyl]acetamide], the “DDR2 pIC50” value in experiment [1] was “D (pIC50≤6)”. In experiment [2], the IC50 is 10 to 100 nM.

As to `Cc1cccc2c1n(-c1cnc(-c3cncc4c3cnn4C)cn1)c(=O)n2CC(=O)N[C@@H](C)C(F)(F)F` [Example 49, 2-[4-methyl-3-[5-(1-methylpyrazolo[3,4-c]pyridin-4-yl)pyrazin-2-yl]-2-oxo-benzimidazol-1-yl]-N-[(1S)-2,2,2-trifluoro-1-methyl-ethyl]acetamide], the IC50 in experiment [1] is 10 to 100 nM. In addition, the “DDR1 pIC50” value in experiment [2] was “A (pIC50>8)”.

Turning to `Cc1cccc2c1n(-c1ccc(-c3cncc4c3cnn4C)nc1)c(=O)n2CC(=O)NCC(F)(F)F` [Example 50, 2-[4-methyl-3-[6-(1-methylpyrazolo[3,4-c]pyridin-4-yl)-3-pyridyl]-2-oxo-benzimidazol-1-yl]-N-(2,2,2-trifluoroethyl)acetamide], the IC50 in experiment [1] was 10 to 100 nM. For the same compound, the “DDR1 pIC50” value in experiment [2] is “A (pIC50>8)”.

On to `Cc1cccc2c1n(-c1ccc(-c3cncc4c3cnn4C)nc1)c(=O)n2CC(=O)N[C@H](C)C(F)(F)F` [Example 51, 2-[4-methyl-3-[6-(1-methylpyrazolo[3,4-c]pyridin-4-yl)-3-pyridyl]-2-oxo-benzimidazol-1-yl]-N-[(1R)-2,2,2-trifluoro-1-methyl-ethyl]acetamide], for which the values for the IC50 in experiment [1] and in experiment [2] were 100 to 1000 nM and 10 to 100 nM, respectively.

With `Cc1cccc2c1n(-c1ccc(-c3cncc4c3cnn4C)nc1)c(=O)n2CC(=O)N[C@@H](C)C(F)(F)F` [Example 52, 2-[4-methyl-3-[6-(1-methylpyrazolo[3,4-c]pyridin-4-yl)-3-pyridyl]-2-oxo-benzimidazol-1-yl]-N-[(1S)-2,2,2-trifluoro-1-methyl-ethyl]acetamide], in experiment [1], the IC50 is 10 to 100 nM. The “DDR1 pIC50” value in experiment [2] is on record as “A (pIC50>8)”.

With `Cc1cccc2c1n(-c1ccc(-c3cncc4c3cnn4C)nc1)c(=O)n2CC(=O)N1CCOC[C@H]1C(F)(F)F` [Example 53, 4-methyl-3-[6-(1-methylpyrazolo[3,4-c]pyridin-4-yl)-3-pyridyl]-1-[2-oxo-2-[(3S)-3-(trifluoromethyl)morpholin-4-yl]ethyl]benzimidazol-2-one], the IC50 in experiment [1] was 10 to 100 nM. The “DDR1 pIC50” value in experiment [2] is reported as “A (pIC50>8)”.

On to `Cc1cccc2c1n(-c1ccc(-c3cncc4c3cnn4C)nc1)c(=O)n2CC(=O)N1CCO[C@H](C(F)(F)F)C1` [Example 54, 4-methyl-3-[6-(1-methylpyrazolo[3,4-c]pyridin-4-yl)-3-pyridyl]-1-[2-oxo-2-[(2S)-2-(trifluoromethyl)morpholin-4-yl]ethyl]benzimidazol-2-one], for which, in experiment [1], the IC50 is 10 to 100 nM. Also, the “DDR1 pIC50” value in experiment [2] is “A (pIC50>8)”.

Turning to `Cc1cccc2c1n(-c1ccc(-c3cncc4c3cnn4C)nc1)c(=O)n2CC(=O)N1CCC[C@H]1C(F)(F)F` [Example 56, 4-methyl-3-[6-(1-methylpyrazolo[3,4-c]pyridin-4-yl)-3-pyridyl]-1-[2-oxo-2-[(2S)-2-(trifluoromethyl)pyrrolidin-1-yl]ethyl]benzimidazol-2-one], the IC50 in experiment [1] was 10 to 100 nM. Also, the “DDR1 pIC50” value in experiment [2] is on record as “A (pIC50>8)”.

For the compound `Cc1cccc2c1n(-c1ccc(-c3cncc4c3cnn4C)cn1)c(=O)n2CC(=O)N[C@@H](C)C(F)(F)F` [Example 57, 2-[4-methyl-3-[5-(1-methylpyrazolo[3,4-c]pyridin-4-yl)-2-pyridyl]-2-oxo-benzimidazol-1-yl]-N-[(1S)-2,2,2-trifluoro-1-methyl-ethyl]acetamide], the “DDR2 pIC50” value in experiment [1] is given as “C (7≥pIC50>6)”. In addition, the “DDR1 pIC50” value in experiment [2] is reported as “A (pIC50>8)”.

In the case of `Cc1cccc2c1n(-c1ccc(-c3cncc4c3cnn4C)cn1)c(=O)n2CC(=O)NCC(F)(F)F` [Example 58], the results for the IC50 in experiment [1] and in experiment [2] were 100 to 1000 nM and 10 to 100 nM, respectively.

For `Cc1cccc2c1n(-c1ccc(-c3cncc4c3cnn4C)cn1)c(=O)n2CC(=O)N1CCC[C@H]1C(F)(F)F` [Example 59, 4-methyl-3-[5-(1-methylpyrazolo[3,4-c]pyridin-4-yl)-2-pyridyl]-1-[2-oxo-2-[(2S)-2-(trifluoromethyl)pyrrolidin-1-yl]ethyl]benzimidazol-2-one], in experiment [1], the IC50 is 10 to 100 nM. Also, the “DDR1 pIC50” value in experiment [2] was “A (pIC50>8)”.

`Cc1cccc2c1n(-c1ccc(-c3cncc4c3cnn4C)cn1)c(=O)n2CC(=O)N1CCO[C@@H](C(F)(F)F)C1` [Example 60, 4-methyl-3-[5-(1-methylpyrazolo[3,4-c]pyridin-4-yl)-2-pyridyl]-1-[2-oxo-2-[(2R)-2-(trifluoromethyl)morpholin-4-yl]ethyl]benzimidazol-2-one]: the IC50 in experiment [1] was 100 to 1000 nM; in experiment [2] it was 10 to 100 nM.

Regarding `C[C@@H](CC(F)(F)F)NC(=O)Cn1c(=O)n(-c2ccc(-c3cncc4c3cnn4C)cc2)c2ccccc21` [Example 62, 2-[3-[4-(1-methylpyrazolo[3,4-c]pyridin-4-yl)phenyl]-2-oxo-benzimidazol-1-yl]-N-[(1S)-3,3,3-trifluoro-1-methyl-propyl]acetamide], the IC50 in experiment [1] is 100 to 1000 nM. For the same compound, in experiment [2], the “DDR1 pIC50” value is on record as “A (pIC50>8)”.

Take `Cn1ncc2c(-c3ccc(-n4c(=O)n(CC(=O)NCC(F)(F)F)c5ccccc54)nc3)cncc21` [Example 63, 2-[3-[5-(1-methylpyrazolo[3,4-c]pyridin-4-yl)-2-pyridyl]-2-oxo-benzimidazol-1-yl]-N-(2,2,2-trifluoroethyl) acetamide]: the “DDR2 pIC50” value in experiment [1] was “D (pIC50≤6)”. Further, the IC50 in experiment [2] was 100 to 1000 nM.

In the case of `Cc1cccc2c1n(-c1ccc(-c3cncc4c3cnn4C)cn1)c(=O)n2CC(=O)N[C@@H](C)C(F)(F)F` [Example 64, 2-[4-methyl-3-[5-(1-methylpyrazolo[3,4-c]pyridin-4-yl)-2-pyridyl]-2-oxo-benzimidazol-1-yl]-N-[(1S)-2,2,2-trifluoro-1-methyl-ethyl]acetamide], in experiment [1], the “DDR2 pIC50” value was “D (pIC50≤6)”. In experiment [2], the “DDR1 pIC50” value is on record as “B (8≥pIC50>7)”.

As for `Cn1ncc2c(-c3ccc(-n4c(=O)n(CC(=O)N5CCC[C@H]5C(F)(F)F)c5ccccc54)cn3)cncc21` [Example 65, 1-[6-(1-methylpyrazolo[3,4-c]pyridin-4-yl)-3-pyridyl]-3-[2-oxo-2-[(2S)-2-(trifluoromethyl)pyrrolidin-1-yl]ethyl]benzimidazol-2-one], the IC50 in experiment [1] is 100 to 1000 nM. Also, the “DDR1 pIC50” value in experiment [2] was “A (pIC50>8)”.

In the case of `Cc1cccc2c1n(-c1ncc(-c3cncc4c3cnn4C)cn1)c(=O)n2CC(=O)NCC(F)(F)F` [Example 66, 2-[4-methyl-3-[5-(1-methylpyrazolo[3,4-c]pyridin-4-yl)pyrimidin-2-yl]-2-oxo-benzimidazol-1-yl]-N-(2,2,2-trifluoroethyl)acetamide], in experiment [1], the “DDR2 pIC50” value is reported as “D (pIC50≤6)”. Besides, in experiment [2], the IC50 is 10 to 100 nM.

Consider `Cc1cccc2c1n(-c1ccc(-c3cncc4c3cnn4C)nn1)c(=O)n2CC(=O)NCC(F)(F)F` [Example 67, 2-[4-methyl-3-[6-(1-methylpyrazolo[3,4-c]pyridin-4-yl)pyridazin-3-yl]-2-oxo-benzimidazol-1-yl]-N-(2,2,2-trifluoroethyl)acetamide], for which the figures for the IC50 in experiment [1] and in experiment [2] were 100 to 1000 nM and 10 to 100 nM, respectively.

Regarding `Cc1cccc2c1n(-c1ccc(-c3cncc4[nH]ncc34)nc1)c(=O)n2CC(=O)N[C@@H](C)C(F)(F)F` [Example 68, 2-[4-methyl-2-oxo-3-[6-(1H-pyrazolo[3,4-c]pyridin-4-yl)-3-pyridyl]benzimidazol-1-yl]-N-[(1S)-2,2,2-trifluoro-1-methyl-ethyl]acetamide], in experiment [1], the IC50 is 10 to 100 nM. In addition, the “DDR1 pIC50” value in experiment [2] was “A (pIC50>8)”.
